Results: patent publication US20230077514A1, “METHODS FOR MODULATING CALORIE CONSUMPTION” (Duke University, priority 2020, published 2023)

Tests used:
[1] = test system: enteroendocrine cells and nodose ganglia neurons; conditions: 10 mM glucose; cited from earlier work
[2] = test system: Cck_tdTomato+ cells; test: Calcium activity of cultured Cck_tdTomato+ cells stimulated with sugars; assay type: cell-based, mice; conditions: D-glucose 20 mM, sucralose 2 mM, maltodextrin 1%; 49 cells
Protocol: Dissociated vagal neurons were cultured to test whether the neurons are able to sense the different sugars. The neurons were stimulated with three consecutive sugars (D-glucose [20 mM], sucralose [2 mM], and maltodextrin [1%]) followed by KCI [50 mM] as an activity control. […] To determine how individual neuropod cells respond to taste and calorie properties, cultured Cck_tdTomato+ cells were stimulated with the same sugars, counterbalancing for order effect, and calcium activity was recorded using KCI [50 mM] as a final activity control. Of the 49 cells imaged, 18.4% responded to all types of sugar, 36.7% responded to only D-glucose, 20.4% to only maltodextrin, and 12.2% to only sucralose (n = 49 cells, n = 3 mice; FIG. 13). […] Cck_tdTomato+ cells were co-cultured with nodose neurons to determine whether neuropod cells were transducing different sugar stimuli onto the same vagal neurons. Patch-clamp electrophysiology, in voltage-clamp, was used to record neuron activity in response to neuropod cell exposure to D-glucose [20 mM] and sucralose [2 mM] in alternating order (FIG. 14). From the 18 pairs recorded, neuropod cells transduced the sugar stimuli and elicited excitatory post-synaptic currents in connected neurons in response to both stimuli in 6 pairs, to only D-glucose in 8 pairs, and to sucralose alone in 4 pairs (FIG. 14). […]

[3] = test system: cervical vagus nerve; test: Whole nerve electrophysiology of the cervical vagus during duodenal sugar perfusion; assay type: in vivo, mice; conditions: wild-type mice; sucrose 300 mM, D-glucose 150 mM, fructose 150 mM, galactose 150 mM, maltodextrin 8%, α-MGP 150 mM, sucralose 15 mM, acesulfame K 15 mM, saccharin 15 mM
Protocol: FIG. 1. […] Model: sugars are perfused into the duodenal lumen while nerve activity is recorded from the cervical vagus of anesthetized wild-type mice.
The proximal duodenum was perfused with sugars, thus bypassing any gustatory or gastric activation. Sugars were tested based on the following properties: both caloric content and sweet taste (sucrose [300 mM], D-glucose [150 mM], […], galactose [150 mM]), calorie-only (maltodextrin [8%], alpha-methylglucopyranoside (α-MGP) [150 mM]), or taste-only (sucralose [15 mM], acesulfame-K [15 mM], saccharin [15 mM]) (FIG. 1, FIG. 2, FIG. 3, FIG. 4).

[4] = test system: nodose neurons co-cultured with Cck_tdTomato+ cells; test: Patch-clamp electrophysiology of nodose neurons co-cultured with Cck_tdTomato+ cells; assay type: cell-based; conditions: D-glucose 20 mM, sucralose 2 mM; for peak excitatory post-synaptic currents, D-glucose vs sucralose: n = 18 pairs; for co-culture pairs responding to this stimulus only / co-culture pairs with excitatory post-synaptic currents in response to only this stimulus: of 18 pairs
Protocol: (§1) Dissociated vagal neurons were cultured to test whether the neurons are able to sense the different sugars. The neurons were stimulated with three consecutive sugars (D-glucose [20 mM], sucralose [2 mM], and maltodextrin [1%]) followed by KCI [50 mM] as an activity control. […] To determine how individual neuropod cells respond to taste and calorie properties, cultured Cck_tdTomato+ cells were stimulated with the same sugars, counterbalancing for order effect, and calcium activity was recorded using KCI [50 mM] as a final activity control. Of the 49 cells imaged, 18.4% responded to all types of sugar, 36.7% responded to only D-glucose, 20.4% to only maltodextrin, and 12.2% to only sucralose (n = 49 cells, n = 3 mice; FIG. 13). […] Cck_tdTomato+ cells were co-cultured with nodose neurons to determine whether neuropod cells were transducing different sugar stimuli onto the same vagal neurons. Patch-clamp electrophysiology, in voltage-clamp, was used to record neuron activity in response to neuropod cell exposure to D-glucose [20 mM] and sucralose [2 mM] in alternating order (FIG. 14). From the 18 pairs recorded, neuropod cells transduced the sugar stimuli and elicited excitatory post-synaptic currents in connected neurons in response to both stimuli in 6 pairs, to only D-glucose in 8 pairs, and to sucralose alone in 4 pairs (FIG. 14). Thus, neuropod cells are heterogenous in their response and transduction of caloric and non-caloric stimuli to vagal neurons.

[5] = test system: vagal nodose neurons; test: Cultured dissociated vagal neurons stimulated with sugars; assay type: cell-based; conditions: D-glucose 20 mM; for response of vagal nodose neurons cultured alone: sucralose 2 mM, maltodextrin 1%, n = 59 neurons
Protocol: as §1

[6] = test system: murine small intestinal organoids; test: Glutamate release assay on murine small intestinal organoids; assay type: cell-based, mouse; conditions: sucrose 300 mM, α-MGP 150 mM, sucralose 15 mM; PBS control 2.632 ± 1.280
Protocol: Slc5a1+ Cck-GFP cells express transcripts for the vesicular glutamate transporters Slc17a6, Slc17a7, Slc17a8 and the excitatory neurotransmitter transporters Slc1a1, Slc1a2, and Slc1a3 (FIG. 4). […] A glutamate release assay was performed on murine small intestinal organoids to determine if glutamate release was stimuli specific (FIG. 24-left). α-MGP was used for a caloric stimulus with no sweet taste, because it is not metabolized once it enters the cell and thus allowed for isolation of cell entry. After nutrient stimulation, the glutamate concentration in the supernatant was 2.632 ± 1.280 ng/µL for PBS control, 13.460 ± 1.724 ng/µL for sucrose [300 mM], 18.183 ± 7.904 ng/µL for α-MGP [150 mM], and 6.053 ± 1.169 ng/µL for sucralose [15 mM].

[7] = test system: duodenal Cck cells; test: Vagal recording with intraluminal 532 nm laser silencing of duodenal Cck (neuropod) cells; assay type: in vivo; conditions: Cck_Halo mice; sucrose 300 mM, α-mgp 150 mM, sucralose 15 mM
Protocol: FIG. 9. Model: intraluminal 532 nm laser activates NpH3 chloride channels to silence duodenal Cck cells in CckCRE_NpH3 mice.
Using whole nerve electrophysiology of the cervical vagus nerve, it was confirmed that vagal activity increases in the presence of luminal sugars. Kaelberer et al., Science 361 (6408) (2018). The proximal duodenum was perfused with sugars, thus bypassing any gustatory or gastric activation. Sugars were tested based on the following properties: both caloric content and sweet taste (sucrose [300 mM], D-glucose [150 mM], fructose [150 mM], galactose [150 mM]), calorie-only (maltodextrin [8%], alpha-methylglucopyranoside (α-MGP) [150 mM]), or taste-only (sucralose [15 mM], acesulfame-K [15 mM], saccharin [15 mM]) (FIG. 1, FIG. 2, FIG. 3, FIG. 4). […] Intraluminal application of the 532 nm laser eliminated the vagal response to sucrose [300 mM], α-mgp [150 mM], and sucralose [15 mM] (n ≥ 5, p < 0.001) (FIG. 10 and FIG. 11; laser activation and wild-type controls). Thus, neuropod cells are required to sense both the calorie and taste properties of sugar and communicate these signals onto vagal neurons.
Cck neuropod cells in the duodenum express receptors for fatty acids (FIG. 69), analyzed by bulk sequencing Cck-positive and Cck-negative epithelial cells in the duodenum of CckGFP mice. Thus, CCK cells in the duodenum may signal the presence of fatty acids to the vagus nerve. To test this, the silencing optogenetic channel was expressed in Cck cells of mice. […] In the duodenum, there is overlap in cells expressing CCK and the vesicular glutamate transporter 1 (Vglut1), required for release of the neurotransmitter glutamate. To test whether glutamate is required as a signaling molecule for fat transduction to the vagus nerve, a cocktail of glutamate receptor inhibitors was perfused through the duodenum of wild type mice. Blockade of ionotropic and metabotropic glutamate receptors blocked vagal firing elicited by glutamate (FIG. 71). […] In an initial baseline test, mice freely explore an arena for 20 minutes, during which their position in the arena measured. […]

Compound	activation of a nodose neuron by itself [1]	response of connected neuron to stimulus applied to the enteroendocrine cell [1]	cells responding to only this sugar [2]	vagal response (firing) to intraduodenal sugar vs baseline [3]	peak excitatory post-synaptic currents, D-glucose vs sucralose [4]	co-culture pairs responding to this stimulus only [4]	co-culture pairs with excitatory post-synaptic currents in response to only this stimulus [4]	response of vagal nodose neurons cultured alone [5]	neurons with a (small) response ([5]; 59 neurons)	glutamate concentration in the supernatant after stimulation [6]	vagal response with Cck cells silenced by 532 nm laser [7]
O=C[C@H](O)[C@@H](O)[C@H](O)[C@H](O)CO [D-glucose]	did not activate	induced excitatory post-synaptic potentials and action potential spikes	36.7%	responds significantly	not significantly different	44.4%	8 pairs	do not respond	2 of 59	–	–
OC[C@H]1O[C@H](O[C@]2(CCl)O[C@H](CCl)[C@@H](O)[C@@H]2O)[C@H](O)[C@@H](O)[C@H]1Cl [sucralose]	–	–	12.2%	responds significantly	not significantly different	22.2%	4 pairs	do not respond	–	6.053 ± 1.169 ng/µL	eliminated
